Results on 15 compounds are retold here after ChEMBL document CHEMBL1201862, “PubChem BioAssay data set” (2004).

Test systems include COLO 205; UACC-257; SK-MEL-2; NCI-H522; SF-295; OVCAR-5; HOP-92; SW-620; TK-10; OVCAR-3; K562; HOP-62; HCT-15; SR; OVCAR-4; CAKI-1.
What all share (experiment): DTP human tumour cell line panel, 48 h

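Following 48 hours of exposure in 96-well plates, responses at five concentrations were used to interpolate endpoints linearly. Abbreviation: GI50, concentration required for 50% inhibition of growth.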 The source made the active and inactive calls. Rule as the data show it: active = GI50 up to about 1.1 µM and inactive = higher.

The term GI50 denotes the concentration at which growth is held to half of that of the control. Take `C/C(CC(=O)Nc1cccc([N+](=O)[O-])c1)=N\NC(=O)CC#N`: the GI50 in the assay on COLO 205 was > 100 µM (inactive); in the assay on UACC-257, > 100 µM (inactive); in the assay on SK-MEL-2, > 100 µM (inactive); in the assay on NCI-H522, 99.1 µM (inactive); in the assay with SF-295, > 100 µM (inactive); in the assay on OVCAR-5 it was > 100 µM (inactive). Also, the GI50 with HOP-92, with SW-620, in the assay with TK-10, with OVCAR-3, with K562 and in the assay with HOP-62 was > 100 µM (inactive) throughout.

In the case of `O=C1CCCCCCCCCCC1CN1CCCCC1` (stereo not drawn), the GI50 was 41.4 µM (inactive) in the assay on COLO 205; 59.8 µM with HCT-15; 70.6 µM (inactive) with UACC-257; > 100 µM (inactive) in the assay on SK-MEL-2; > 100 µM (inactive) in the assay with NCI-H522; 46.9 µM (inactive) in the assay on SF-295. Moreover, the GI50 in the assay on OVCAR-5 is 89.7 µM (inactive); in the assay with SW-620, > 100 µM (inactive); in the assay on SR, > 100 µM (inactive); in the assay with OVCAR-4, > 100 µM (inactive); with TK-10 it was 38.4 µM (inactive); in the assay on OVCAR-3 it was > 100 µM (inactive). The GI50 was 94.4 µM (inactive) in the assay with K562 and > 100 µM (inactive) in the assay on HOP-62.

Regarding `CC(C)NC(=O)OCc1c2c(n(C)c1COC(=O)NC(C)C)-c1ccccc1CC2`, the GI50 in the assay with COLO 205 was 8.05 µM (inactive); with HCT-15 it was 14 µM; in the assay with UACC-257 it was 15.2 µM (inactive); with SK-MEL-2, 14.5 µM (inactive); in the assay with NCI-H522, 5.32 µM (inactive); in the assay on SF-295 it was 15.9 µM (inactive). The GI50 in the assay with OVCAR-5 was 17.2 µM (inactive); with HOP-92, 6.73 µM (inactive); in the assay on SW-620, 9.2 µM (inactive); in the assay on OVCAR-4, 15 µM (inactive); in the assay with CAKI-1 it was 9.14 µM (inactive); in the assay with OVCAR-3 it was 14.2 µM (inactive). In addition, the GI50 with K562 is 4.26 µM (inactive); in the assay with HOP-62, 13 µM (inactive).

For the compound `COc1ccc(C(=O)Cc2ccc(Br)cc2)cc1OC`, the GI50 in the assay on HCT-15 was above 100 µM; in the assay with UACC-257, > 100 µM (inactive); in the assay on SK-MEL-2 it was > 100 µM (inactive); with NCI-H522, 79.3 µM (inactive); with SF-295, 40 µM (inactive); with OVCAR-5, > 100 µM (inactive). Moreover, the GI50 in the assay with SW-620 is > 100 µM (inactive); with SR it was > 100 µM (inactive); in the assay with OVCAR-4, > 100 µM (inactive); in the assay on CAKI-1, > 100 µM (inactive); with TK-10, 56 µM (inactive); in the assay with OVCAR-3, > 100 µM (inactive). Besides, the GI50 with K562 was > 100 µM (inactive); with HOP-62, 79.1 µM (inactive).

With `CN(c1ccccc1)c1nc(=[N+]2CCCC2)ss1.[O-][Cl+3]([O-])([O-])[O-]`, the GI50 with COLO 205 was 11.1 µM (inactive); with HCT-15, 87.7 µM; in the assay on UACC-257 it was > 100 µM (inactive); in the assay on SK-MEL-2 it was > 100 µM (inactive); in the assay on NCI-H522, 1.7 µM (inactive); with SW-620 it was > 100 µM (inactive). For the same compound, the GI50 was 17.1 µM (inactive) in the assay with SR; > 100 µM (inactive) with OVCAR-4; > 100 µM (inactive) with CAKI-1; > 100 µM (inactive) in the assay with TK-10; > 100 µM (inactive) in the assay on OVCAR-3; 74.5 µM (inactive) with K562.

For `O=C(Cn1ccnc1[N+](=O)[O-])c1ccc(F)cc1`, the GI50 was > 100 µM (inactive) in the assay on COLO 205; above 100 µM with HCT-15; > 100 µM (inactive) in the assay with UACC-257; > 100 µM (inactive) with SK-MEL-2; > 100 µM (inactive) in the assay on NCI-H522; > 100 µM (inactive) with SF-295. Further, the GI50 with OVCAR-5, in the assay with HOP-92, in the assay on SW-620, in the assay on OVCAR-4, in the assay with CAKI-1 and in the assay with TK-10 was > 100 µM (inactive) in each case. Moreover, the GI50 in the assay with OVCAR-3, in the assay on K562 and in the assay with HOP-62 was > 100 µM (inactive) throughout.

As for `CC(=O)c1c2c(cc3c1CC1(C3)Cc3cc4c(c(C(=O)O)c3C1)CCC4)CCC2` (stereo not drawn), the GI50 was 24.7 µM (inactive) with COLO 205; 45 µM (inactive) in the assay with UACC-257; 15.9 µM (inactive) with NCI-H522; 38.9 µM (inactive) with SF-295; > 100 µM (inactive) with OVCAR-5; 33.2 µM (inactive) in the assay on HOP-92. Further, the GI50 was 48.6 µM (inactive) in the assay on SW-620; 25.2 µM (inactive) with SR; 49.1 µM (inactive) with OVCAR-4; 36.9 µM (inactive) in the assay with CAKI-1; 42.3 µM (inactive) with TK-10; 19.7 µM (inactive) in the assay on OVCAR-3. The figures for the GI50 in the assay on K562 and in the assay on HOP-62 were 32.6 µM (inactive) and 36.5 µM (inactive), respectively.

As for `Cc1cc(O)c(C(=O)O)c2c1C(=O)c1c(O)c(OCC(O)C(O)C(O)C(O)CO)c(O)c(O)c1C2=O.NCCNCCO` (stereo not drawn), the GI50 was > 100 µM (inactive) in the assay on COLO 205; above 100 µM with HCT-15; > 100 µM (inactive) with UACC-257; > 100 µM (inactive) with SK-MEL-2; > 100 µM (inactive) in the assay with NCI-H522; > 100 µM (inactive) with SF-295. For the same compound, the GI50 with OVCAR-5, with HOP-92, with SW-620, with OVCAR-4, with CAKI-1 and in the assay on TK-10 was > 100 µM (inactive) throughout. Besides, the GI50 in the assay on OVCAR-3, in the assay with K562 and in the assay on HOP-62 was > 100 µM (inactive) in each case.

In the case of `COC(=O)C1(c2ccc(OC)cc2)NC(c2ccccc2)C2C(=O)N(c3ccc(OC)cc3)C(=O)C21` (stereo not drawn), the GI50 in the assay with COLO 205 was > 100 µM (inactive); with HCT-15 it was above 100 µM; in the assay with UACC-257, > 100 µM (inactive); with SK-MEL-2 it was > 100 µM (inactive); in the assay on NCI-H522, > 100 µM (inactive); in the assay on SF-295, > 100 µM (inactive). Further, the GI50 with OVCAR-5, with SW-620, with OVCAR-4, with CAKI-1, in the assay on TK-10 and in the assay with K562 was > 100 µM (inactive) each time.

On to `CC(Oc1ccc(OCC2CCCCC2)cc1)C(=O)NCc1ccco1` (stereo not drawn), for which the GI50 in the assay with HCT-15 is 48.1 µM; with UACC-257, 23.6 µM (inactive); in the assay on SK-MEL-2, 21 µM (inactive); with NCI-H522, 18.4 µM (inactive); in the assay with OVCAR-4, 56.5 µM (inactive); with TK-10, 84.7 µM (inactive). Moreover, the GI50 in the assay with OVCAR-3 is 40.6 µM (inactive); in the assay with K562, 42.3 µM (inactive).

Consider `N#C/N=C(/N)NCc1ccccc1`, for which the GI50 in the assay with COLO 205 is > 100 µM (inactive); with HCT-15 it was above 100 µM; in the assay with UACC-257 it was > 100 µM (inactive); with SK-MEL-2, > 100 µM (inactive); in the assay on NCI-H522, > 100 µM (inactive); in the assay with SF-295, > 100 µM (inactive). Also, the GI50 with OVCAR-5, in the assay on HOP-92, in the assay on SR, in the assay with OVCAR-4, in the assay with TK-10 and in the assay on OVCAR-3 was > 100 µM (inactive) each time. Also, the GI50 in the assay on HOP-62 was > 100 µM (inactive).

As to `CCOC(=O)[C@H]1Nc2ccc(C)cc2C2c3ccccc3CC21` (stereo partly drawn), the GI50 in the assay with COLO 205 is > 100 µM (inactive); in the assay on HCT-15, above 100 µM; in the assay on UACC-257 it was 30.6 µM (inactive); in the assay with SK-MEL-2, > 100 µM (inactive); in the assay on NCI-H522, > 100 µM (inactive); in the assay on SF-295 it was 74.1 µM (inactive). The GI50 with OVCAR-5, in the assay with SW-620, in the assay on SR, in the assay on OVCAR-4, with CAKI-1 and in the assay on TK-10 was > 100 µM (inactive) throughout. For the same compound, the GI50 in the assay on OVCAR-3, with K562 and in the assay on HOP-62 was > 100 µM (inactive) throughout.

For `OC12CCC3(O)c4ccccc4C3C1c1ccccc12` (stereo not drawn), the GI50 in the assay with COLO 205 is > 100 µM (inactive); in the assay with HCT-15, above 100 µM; in the assay with UACC-257 it was > 100 µM (inactive); with SK-MEL-2, > 100 µM (inactive); with NCI-H522, > 100 µM (inactive); in the assay on SF-295 it was > 100 µM (inactive). Also, the GI50 with SW-620, in the assay with SR, in the assay with OVCAR-4, in the assay on TK-10, in the assay on K562 and in the assay on HOP-62 was > 100 µM (inactive) each time.

As for `CC(=O)OC1CC[C@@]2(C)C(CC(OC3OC(CO)C(O)C(O)C3O)[C@]3(C)C2CCC24CC23CC[C@H]4C(C)CC(O)[C@@H](O)C(C)(C)O)C1(C)C` (stereo partly drawn), the GI50 in the assay on COLO 205 is 9.4 µM (inactive); in the assay with HCT-15 it was above 50 µM; with UACC-257, 11.7 µM (inactive); in the assay with SK-MEL-2 it was 10.3 µM (inactive); in the assay with NCI-H522, 8.63 µM (inactive); in the assay with SF-295 it was 22.4 µM (inactive). Moreover, the GI50 is > 50 µM (inactive) in the assay on OVCAR-5; 10 µM (inactive) in the assay on HOP-92; 16.6 µM (inactive) in the assay with SW-620; > 50 µM (inactive) in the assay with OVCAR-4; 41.7 µM (inactive) in the assay on CAKI-1; 22.9 µM (inactive) with TK-10. Also, the GI50 in the assay with OVCAR-3 is 16.5 µM (inactive); in the assay on K562 it was 15.4 µM (inactive); with HOP-62, 18.6 µM (inactive).

For the compound `Cc1c2cc[n+](C)cc2c(C)c2c1[nH]c1ccccc12`, the 50% growth inhibitory concentration (GI50) is 0.665 µM (active) with COLO 205; 5.97 µM (inactive) in the assay on UACC-257; 1.11 µM (active) in the assay on SK-MEL-2; 0.869 µM (active) with NCI-H522; 0.233 µM (active) in the assay on SF-295; 9.84 µM (inactive) in the assay with OVCAR-5. Also, the GI50 was 1.33 µM (inactive) with HOP-92; 1.17 µM (inactive) with SW-620; 2.77 µM (inactive) in the assay on OVCAR-4; 4.39 µM (inactive) in the assay on CAKI-1; 2.99 µM (inactive) in the assay on OVCAR-3; 2.79 µM (inactive) with K562. Besides, the GI50 with HOP-62 is 0.441 µM (active).
